# Molecular target: c-kit mutant D816V (Homo sapiens (Human), UniProt P10721, D816V/DEL694-753)
# Assay: c-Kit mutant D816V biochemical assay (AlphaScreen)
# Conditions: c-kit D816V biochemical inhibitory activity
# How it was run: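 His-tagged c-Kit D816V kinase domain (551-934, Δ694-753, E. coli) phosphorylating 30 nM biotin-(E4Y)10 at 10 μM ATP in HEPES pH 7.2 with Mg/Mn, 5% DMSO, 30 min at room temperature. PY20-acceptor/streptavidin-donor AlphaScreen detection after EDTA stop. IC50 from 8-point 1:3 titration.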
# Chain of c-kit mutant D816V (P10721 other isoform, or with tags, fused parts or gaps D816V/del 694-753): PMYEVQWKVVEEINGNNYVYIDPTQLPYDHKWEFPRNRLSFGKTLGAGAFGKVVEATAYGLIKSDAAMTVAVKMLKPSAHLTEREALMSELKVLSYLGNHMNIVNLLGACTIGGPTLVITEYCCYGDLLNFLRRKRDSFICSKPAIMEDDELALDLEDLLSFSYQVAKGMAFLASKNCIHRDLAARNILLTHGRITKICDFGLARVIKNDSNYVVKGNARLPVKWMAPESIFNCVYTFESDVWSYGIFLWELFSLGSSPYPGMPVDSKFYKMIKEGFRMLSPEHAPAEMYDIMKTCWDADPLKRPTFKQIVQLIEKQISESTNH
row,SMILES,IC50
1,"Cc1n[nH]c(C(=O)Nc2cnc3[nH]c(-c4cccnc4C(F)(F)F)cc3c2)c1C [P-2176, 3,4-dimethyl-N-[2-[2-(trifluoromethyl)-3-pyridyl]-1H-pyrrolo[2,3-b]pyridin-5-yl]-1H-pyrazole-5-carboxamide]",0.0001 to 1 µM
2,"O=C(O)c1cccc(C(=O)Nc2cnc3[nH]c(-c4ccccc4)cc3c2)c1 [P-2291, 3-[(2-phenyl-1H-pyrrolo[2,3-b]pyridin-5-yl)carbamoyl]benzoic acid]",10 to 200 µM
3,"Cc1n[nH]c(C(=O)Nc2cnc3[nH]c(-c4cccc(C(=O)O)c4C)cc3c2)c1C [P-2297, 3-[5-[(3,4-dimethyl-1H-pyrazole-5-carbonyl)amino]-1H-pyrrolo[2,3-b]pyridin-2-yl]-2-methyl-benzoic acid]",0.0001 to 1 µM
4,"Cc1n[nH]c(C(=O)Nc2cnc3[nH]c(-c4ccncc4Cl)cc3c2)c1C [P-2278, N-[2-(3-chloro-4-pyridyl)-H-pyrrolo[2,3-b]pyridin-5-yl]-3,4-dimethyl-1H-pyrazole-5-carboxamide]",0.0001 to 1 µM
5,"Cc1cccnc1C(=O)Nc1cnc2[nH]c(-c3ccccc3)cc2c1 [P-2016, 3-methyl-N-(2-phenyl-1H-pyrrolo[2,3-b]pyridin-5-yl)pyridine-2-carboxamide]",1 to 10 µM
6,"Cc1n[nH]c(C(=O)Nc2cnc3[nH]c(-c4cnc(N5CCN(C)CC5)nc4)cc3c2)c1C [P-2160, 3,4-dimethyl-N-[2-[2-(4-methylpiperazin-1-yl)pyrimidin-5-yl]-1H-pyrrolo[2,3-b]pyridin-5-yl]-1H-pyrazole-5-carboxamide]",0.0001 to 1 µM
7,"Cc1n[nH]c(C(=O)Nc2cnc3[nH]c(-c4ccc(F)c(-c5nn[nH]n5)c4)cc3c2)c1C [P-2174, N-[2-[4-fluoro-3-(2H-tetrazol-5-yl)phenyl]-1H-pyrrolo[2,3-b]pyridin-5-yl]-3,4-dimethyl-1H-pyrazole-5-carboxamide]",0.0001 to 1 µM
8,"Cc1n[nH]c(C(=O)Nc2cnc3[nH]c(-c4c(C)nn(C)c4C)cc3c2)c1C [P-2165, 3,4-dimethyl-N-[2-(1,3,5-trimethylpyrazol-4-yl)-1H-pyrrolo[2,3-b]pyridin-5-yl]-1H-pyrazole-5-carboxamide]",1 to 10 µM
9,"CCOC(=O)Nc1cccc(Nc2ncc(NC(=O)c3[nH]nc(C)c3C)cn2)c1 [P-2055, ethyl N-[3-[[5-[(3,4-dimethyl-1H-pyrazole-5-carbonyl)amino]pyrimidin-2-yl]amino]phenyl]carbamate]",0.0001 to 1 µM
10,"Cc1n[nH]c(C(=O)Nc2cnc3[nH]ccc3c2)c1C [P-2032, 3,4-dimethyl-N-(1H-pyrrolo[2,3-b]pyridin-5-yl)-1H-pyrazole-5-carboxamide]",1 to 10 µM
11,"CNC(=O)c1cccc(Nc2ncc(NC(=O)c3[nH]nc(C)c3C)cn2)c1 [P-2054, 3,4-dimethyl-N-[2-[3-(methylcarbamoyl)anilino]pyrimidin-5-yl]-1H-pyrazole-5-carboxamide]",0.0001 to 1 µM
12,"Cc1n[nH]c(C(=O)Nc2cnc3[nH]c(-c4ccccc4OC(F)(F)F)cc3c2)c1C [P-2182, 3,4-dimethyl-N-[2-[2-(trifluoromethoxy)phenyl]-1H-pyrrolo[2,3-b]pyridin-5-yl]-1H-pyrazole-5-carboxamide]",0.0001 to 1 µM
13,"CCNS(=O)(=O)c1cccc(Nc2ncc(NC(=O)c3[nH]nc(C)c3C)cn2)c1 [P-2050, N-[2-[3-(ethylsulfamoyl)anilino]pyrimidin-5-yl]-3,4-dimethyl-1H-pyrazole-5-carboxamide]",1 to 10 µM
14,"O=C(Nc1cnc2[nH]c(-c3ccc(F)cc3)cc2c1)c1cccc2n[nH]cc12 [P-2027, N-[2-(4-fluorophenyl)-1H-pyrrolo[2,3-b]pyridin-5-yl]-2H-indazole-4-carboxamide]",1 to 10 µM
15,"Cc1cc(-c2cc3cc(NC(=O)c4[nH]nc(C)c4C)cnc3[nH]2)cnc1C [P-2282, N-[2-(5,6-dimethyl-3-pyridyl)-1H-pyrrolo[2,3-b]pyridin-5-yl]-3,4-dimethyl-1H-pyrazole-5-carboxamide]",0.0001 to 1 µM
16,"Cc1n[nH]c(C(=O)Nc2cnc(Nc3ccccc3)nc2)c1C [P-2044, N-(2-anilinopyrimidin-5-yl)-3,4-dimethyl-1H-pyrazole-5-carboxamide]",0.0001 to 1 µM
17,"Cc1n[nH]c(C(=O)Nc2cnc3[nH]c(-c4ccnc(N5CCN(C(=O)C6CC6)CC5)c4)cc3c2)c1C [P-2187, N-[2-[2-[4-(cyclopropanecarbonyl)piperazin-1-yl]-4-pyridyl]-1H-pyrrolo[2,3-b]pyridin-5-yl]-3,4-dimethyl-1H-pyrazole-5-carboxamide]",0.0001 to 1 µM
18,"Cc1nn(C)cc1-c1cc2cc(NC(=O)c3[nH]nc(C)c3C)cnc2[nH]1 [P-2038, N-[2-(1,3-dimethylpyrazol-4-yl)-1H-pyrrolo[2,3-b]pyridin-5-yl]-4,5-dimethyl-1H-pyrazole-3-carboxamide]",0.0001 to 1 µM
19,"Cc1cc(C(=O)Nc2cnc3[nH]c(C4=CCN(C(=O)N5CCOCC5)CC4)cc3c2)n[nH]1 [P-2031, 5-methyl-N-[2-[1-(morpholine-4-carbonyl)-3,6-dihydro-2H-pyridin-4-yl]-1H-pyrrolo[2,3-b]pyridin-5-yl]-1H-pyrazole-3-carboxamide]",0.0001 to 1 µM

row,SMILES,IC50
1,"Cc1cc(C(=O)Nc2cnc3[nH]c(-c4ccc(F)cc4)cc3c2)[nH]n1 [P-2019, N-[2-(4-fluorophenyl)-1H-pyrrolo[2,3-b]pyridin-5-yl]-3-methyl-1H-pyrazole-5-carboxamide]",0.0001 to 1 µM
2,"Cc1n[nH]c(C(=O)Nc2cnc3c(c2)cc(C2=CCN(C(=O)N4CCOCC4)CC2)n3S(=O)(=O)c2ccccc2)c1C [P-2033, N-[1-(benzenesulfonyl)-2-[1-(morpholine-4-carbonyl)-3,6-dihydro-2H-pyridin-4-yl]pyrrolo[2,3-b]pyridin-5-yl]-3,4-dimethyl-1H-pyrazole-5-carboxamide]",0.0001 to 1 µM
3,"Cc1[nH]nc(C(=O)Nc2cnc3[nH]c(C4=CCN(C(=O)C5CC5)CC4)cc3c2)c1C [P-2043, N-[2-[1-(cyclopropanecarbonyl)-3,6-dihydro-2H-pyridin-4-yl]-1H-pyrrolo[2,3-b]pyridin-5-yl]-4,5-dimethyl-1H-pyrazole-3-carboxamide]",0.0001 to 1 µM
4,"Cc1[nH]nc(C(=O)Nc2cnc3[nH]c(C4=CCN(C(=O)C5CC5)CC4)cc3c2)c1Cl [P-2039, 4-chloro-N-[2-[1-(cyclopropanecarbonyl)-3,6-dihydro-2H-pyridin-4-yl]-1H-pyrrolo[2,3-b]pyridin-5-yl]-5-methyl-1H-pyrazole-3-carboxamide]",0.0001 to 1 µM
5,"Cc1n[nH]c(C(=O)Nc2cnc3[nH]c(-c4cccc(CC(=O)O)c4)cc3c2)c1C [P-2293, 2-[3-[5-[(3,4-dimethyl-1H-pyrazole-5-carbonyl)amino]-1H-pyrrolo[2,3-b]pyridin-2-yl]phenyl]acetic acid]",0.0001 to 1 µM
6,"Cc1n[nH]c(C(=O)Nc2cnc3[nH]c(C4=CCOCC4)cc3c2)c1C [P-2271, N-[2-(3,6-dihydro-2H-pyran-4-yl)-1H-pyrrolo[2,3-b]pyridin-5-yl]-3,4-dimethyl-1H-pyrazole-5-carboxamide]",0.0001 to 1 µM
7,"COC(=O)c1cccc(C(=O)Nc2cnc3[nH]c(-c4ccccc4)cc3c2)c1 [P-2290, methyl 3-[(2-phenyl-1H-pyrrolo[2,3-b]pyridin-5-yl)carbamoyl]benzoate]",10 to 200 µM
8,"Cc1n[nH]c(C(=O)Nc2cnc3[nH]c(-c4cncc(C#N)c4)cc3c2)c1C [P-2270, N-[2-(5-cyano-3-pyridyl)-1H-pyrrolo[2,3-b]pyridin-5-yl]-3,4-dimethyl-1H-pyrazole-5-carboxamide]",0.0001 to 1 µM
9,"Cc1n[nH]c(C(=O)Nc2cnc3[nH]c(-c4ccccc4C(F)(F)F)cc3c2)c1C [P-2180, 3,4-dimethyl-N-[2-[2-(trifluoromethyl)phenyl]-1H-pyrrolo[2,3-b]pyridin-5-yl]-1H-pyrazole-5-carboxamide]",0.0001 to 1 µM
10,"O=C(Nc1cnc2[nH]c(-c3ccccc3)cc2c1)c1cn[nH]n1 [P-2015, N-(2-phenyl-1H-pyrrolo[2,3-b]pyridin-5-yl)-2H-triazole-4-carboxamide]",1 to 10 µM
11,"Cc1n[nH]c(C(=O)Nc2cnc3[nH]c(-c4ccnc(N5CCN(S(C)(=O)=O)CC5)c4)cc3c2)c1C [P-2186, 3,4-dimethyl-N-[2-[2-(4-methylsulfonylpiperazin-1-yl)-4-pyridyl]-1H-pyrrolo[2,3-b]pyridin-5-yl]-1H-pyrazole-5-carboxamide]",0.0001 to 1 µM
12,"O=C(Nc1cnc2[nH]c(-c3ccc(F)cc3)cc2c1)c1n[nH]c2c1CCCC2 [P-2047, N-[2-(4-fluorophenyl)-1H-pyrrolo[2,3-b]pyridin-5-yl]-4,5,6,7-tetrahydro-1H-indazole-3-carboxamide]",0.0001 to 1 µM
13,"Cc1n[nH]c(C(=O)Nc2cnc3[nH]nc(-c4cccc(N5CCNCC5)c4)c3c2)c1C [P-2166, 3,4-dimethyl-N-[3-(3-piperazin-1-ylphenyl)-1H-pyrazolo[3,4-b]pyridin-5-yl]-1H-pyrazole-5-carboxamide]",0.0001 to 1 µM
14,"CC(=O)Nc1cccc(C(=O)Nc2cnc3[nH]c(-c4ccc(F)cc4)cc3c2)c1 [P-2026, 3-acetamido-N-[2-(4-fluorophenyl)-1H-pyrrolo[2,3-b]pyridin-5-yl]benzamide]",10 to 200 µM
15,"Cc1cc(-c2cc3cc(NC(=O)c4[nH]nc(C)c4C)cnc3[nH]2)ccc1C(=O)O [P-2296, 4-[5-[(3,4-dimethyl-1H-pyrazole-5-carbonyl)amino]-1H-pyrrolo[2,3-b]pyridin-2-yl]-2-methyl-benzoic acid]",0.0001 to 1 µM
16,"Cc1c[nH]nc1C(=O)Nc1cnc2[nH]c(-c3ccc(F)cc3)cc2c1 [P-2029, N-[2-(4-fluorophenyl)-1H-pyrrolo[2,3-b]pyridin-5-yl]-4-methyl-1H-pyrazole-3-carboxamide]",0.0001 to 1 µM
17,"COc1ccc(-c2cc3cc(NC(=O)c4[nH]nc(C)c4C)cnc3[nH]2)c(C)c1C [P-2284, N-[2-(4-methoxy-2,3-dimethyl-phenyl)-1H-pyrrolo[2,3-b]pyridin-5-yl]-3,4-dimethyl-1H-pyrazole-5-carboxamide]",0.0001 to 1 µM
18,"Cc1ccc(-c2cc3cc(NC(=O)c4[nH]nc(C)c4C)cnc3[nH]2)c(C)c1 [P-2181, N-[2-(2,4-dimethylphenyl)-1H-pyrrolo[2,3-b]pyridin-5-yl]-3,4-dimethyl-1H-pyrazole-5-carboxamide]",0.0001 to 1 µM

# From US10301280B2 (Plexxikon Inc., priority 2012, dated 2019)
